Measured values: the supplement of paper PMC10627819

Legend:
Test in all cases: Bliss interaction score (quartile over a dose matrix) (fitness difference); higher = more antagonism (negative = synergy)
B. subtilis 168 = test system: B. subtilis 168
Method in brief: (§1)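 The Bliss score was calculated by subtracting the expected fitness, the product of single-drug values, from the observed fitness. OD595 at entry into stationary phase, over the plate's robust no-drug mean and capped at 1, served as the fitness readout. Single-drug values were inferred from combination data, and scores are summarised by quartiles across technical, biological and donor/recipient replicates.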

S. pneumoniae D39V = test system: S. pneumoniae D39V
Method in brief: as §1

S. aureus Newman = test system: S. aureus Newman
Method in brief: as §1

S. aureus DSM 20231 = test system: S. aureus DSM 20231
Method in brief: as §1
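Further: first quartile when negative (synergy) and third quartile when positive (antagonism).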

Compound | Bliss interaction score (B. subtilis 168) | Bliss interaction score (S. pneumoniae D39V) | Bliss interaction score (S. aureus Newman) | Bliss interaction score (S. aureus DSM 20231) | Bliss interaction score (B. subtilis 168; main component drawn) | Bliss interaction score (S. pneumoniae D39V; main component drawn) | Bliss interaction score (S. aureus Newman; main component drawn) | Bliss interaction score (S. aureus DSM 20231; main component drawn)
CN(C)[C@@H]1C(O)=C(C(N)=O)C(=O)[C@@]2(O)C(O)=C3C(=O)c4c(O)ccc(Cl)c4[C@@](C)(O)[C@H]3C[C@@H]12 [Clortetracycline] + CN[C@@H]1[C@H](O)[C@H](NC)[C@H]2O[C@@]3(O)C(=O)C[C@@H](C)O[C@H]3O[C@@H]2[C@H]1O [Spectinomycin] | -0.0478 | 0.0439 | -0.0716 | -0.0598 | – | – | – | –
CN(C)[C@@H]1C(O)=C(C(N)=O)C(=O)[C@@]2(O)C(O)=C3C(=O)c4c(O)ccc(Cl)c4[C@@](C)(O)[C@H]3C[C@@H]12 [Clortetracycline] + O=C(O[C@@H]1Cc2c(O)cc(O)cc2O[C@@H]1c1cc(O)c(O)c(O)c1)c1cc(O)c(O)c(O)c1 [EGCG] | -0.096 | -0.0892 | -0.0462 | 0.114 | – | – | – | –
N#CC(C#N)=NNc1cccc(Cl)c1 [CCCP] + CC1(C)S[C@@H]2[C@H](NC(=O)Cc3ccccc3)C(=O)N2[C@H]1C(=O)O [PenicillinG] | 0.0568 | 0.0767 | -0.0514 | 0.0402 | – | – | – | –
Cc1ncc([N+](=O)[O-])n1CCO [Metronidazole] + CC1(C)S[C@@H]2[C@H](NC(=O)Cc3ccccc3)C(=O)N2[C@H]1C(=O)O [PenicillinG] | 0.0322 | 0.114 | 0.0592 | 0.0819 | – | – | – | –
CN(C)[C@@H]1C(O)=C(C(N)=O)C(=O)[C@@]2(O)C(O)=C3C(=O)c4c(O)ccc(Cl)c4[C@@](C)(O)[C@H]3C[C@@H]12 [Clortetracycline] + CC[C@H]1OC(=O)[C@H](C)C(=O)[C@H](C)[C@@H](O[C@@H]2O[C@H](C)C[C@H](N(C)C)[C@H]2O)[C@](C)(OC)C[C@@H](C)C(=O)[C@H](C)[C@H]2N(CCCCn3cnc(-c4cccnc4)c3)C(=O)O[C@]12C [Telithromycin] | -0.372 | -0.0824 | -0.101 | -0.0731 | – | – | – | –
CN(C)[C@@H]1C(O)=C(C(N)=O)C(=O)[C@@]2(O)C(O)=C3C(=O)c4c(O)ccc(Cl)c4[C@@](C)(O)[C@H]3C[C@@H]12 [Clortetracycline] + N[C@@H]1CONC1=O [CycloserineD] | 0.0921 | 0.199 | 0.0727 | -0.118 | – | – | – | –
CO/N=C(\C(=O)N[C@@H]1C(=O)N2C(C(=O)O)=C(COC(N)=O)CS[C@H]12)c1ccco1 [Cefuroxime] + CCC[C@@H]1C[C@@H](C(=O)N[C@@H]([C@H]2O[C@H](SC)[C@H](O)[C@@H](O)[C@H]2O)[C@H](C)Cl)N(C)C1 [Clindamycin] | -0.048 | 0.0539 | -0.0892 | -0.156 | – | – | – | –
N#CC(C#N)=NNc1cccc(Cl)c1 [CCCP] + CO/N=C(\C(=O)N[C@@H]1C(=O)N2C(C(=O)[O-])=C(C[N+]3(C)CCCC3)CS[C@H]12)c1csc(N)n1 [Cefepime] | 0.0769 | -0.0827 | 0.0498 | 0.1 | – | – | – | –
C[C@@H]1O[C@@H]1P(=O)(O)O [Fosfomycin] + CO[C@@]12[C@H](COC(N)=O)C3=C(C(=O)C(C)=C(N)C3=O)N1C[C@@H]1N[C@@H]12 [MitomycinC] | -0.116 | 0.117 | -0.095 | 0.0499 | – | – | – | –
CN(C)[C@@H]1C(O)=C(C(N)=O)C(=O)[C@@]2(O)C(O)=C3C(=O)c4c(O)ccc(Cl)c4[C@@](C)(O)[C@H]3C[C@@H]12 [Clortetracycline] + C[C@H]1COc2c(N3CCN(C)CC3)c(F)cc3c(=O)c(C(=O)O)cn1c23 [Levofloxacin] | 0.035 | 0.0525 | 0.0876 | 0.115 | – | – | – | –
N#CC(C#N)=NNc1cccc(Cl)c1 [CCCP] + Oc1cc(Cl)ccc1Oc1ccc(Cl)cc1Cl [Triclosan] | 0.0443 | 0.0866 | -0.021 | 0.0338 | – | – | – | –
CC(=O)Oc1ccccc1C(=O)O [Acetylsalicylicacid] + COc1cc(Cc2cnc(N)nc2N)cc(OC)c1OC [Trimethoprim] | 0.123 | -0.163 | 0.0981 | -0.0672 | – | – | – | –
N#CC(C#N)=NNc1cccc(Cl)c1 [CCCP] + C[C@H]1c2cccc(O)c2C(=O)C2=C(O)[C@]3(O)C(=O)C(C(N)=O)=C(O)[C@@H](N(C)C)[C@@H]3[C@@H](O)[C@@H]21 [Doxycycline] | -0.0353 | 0.047 | 0.0768 | -0.0215 | – | – | – | –
N#CC(C#N)=NNc1cccc(Cl)c1 [CCCP] + CN(C)C(=O)C(CCN1CCC(O)(c2ccc(Cl)cc2)CC1)(c1ccccc1)c1ccccc1 [Loperamide] | 0.0251 | -0.227 | 0.0942 | -0.0407 | – | – | – | –
O=C(O)c1cn(C2CC2)c2cc(N3CCNCC3)c(F)cc2c1=O [Ciprofloxacin] + CN(C)[C@@H]1C(O)=C(C(N)=O)C(=O)[C@@]2(O)C(O)=C3C(=O)c4c(O)ccc(Cl)c4[C@@](C)(O)[C@H]3C[C@@H]12 [Clortetracycline] | 0.199 | -0.035 | 0.119 | 0.104 | – | – | – | –
CC(=O)Oc1ccccc1C(=O)O [Acetylsalicylicacid] + Cc1ncc([N+](=O)[O-])n1CCO [Metronidazole] | 0.203 | 0.056 | -0.0652 | 0.0605 | – | – | – | –
CC(=O)Oc1ccccc1C(=O)O [Acetylsalicylicacid] + CO/N=C(\C(=O)N[C@@H]1C(=O)N2C(C(=O)[O-])=C(C[N+]3(C)CCCC3)CS[C@H]12)c1csc(N)n1 [Cefepime] | 0.167 | 0.118 | 0.0506 | 0.097 | – | – | – | –
CN(C)[C@@H]1C(O)=C(C(N)=O)C(=O)[C@@]2(O)C(O)=C3C(=O)c4c(O)ccc(Cl)c4[C@@](C)(O)[C@H]3C[C@@H]12 [Clortetracycline] + C/C(=C\C(=O)OCCCCCCCCC(=O)O)C[C@@H]1OC[C@H](C[C@@H]2O[C@H]2[C@@H](C)[C@H](C)O)[C@@H](O)[C@H]1O [Pseudomonic acid] | -0.0689 | 0.0729 | 0.0209 | 0.0276 | – | – | – | –
CC(=O)Oc1ccccc1C(=O)O [Acetylsalicylicacid] + C1=CC(=CC(=C1)Cl)NN=C(C#N)C#N [CCCP] | -0.0436 | -0.161 | -0.0296 | -0.138 | – | – | – | –
CN(C)[C@@H]1C(O)=C(C(N)=O)C(=O)[C@@]2(O)C(O)=C3C(=O)c4c(O)ccc(Cl)c4[C@@](C)(O)[C@H]3C[C@@H]12 [Clortetracycline] + CC(C1CCC(C(O1)OC2C(CC(C(C2O)OC3C(C(C(CO3)(C)O)NC)O)N)N)N)NC [Gentamicin] | – | – | – | – | 0.181 | -0.183 | 0.141 | 0.0919
CC(=O)Oc1ccccc1C(=O)O [Acetylsalicylicacid] + Clc1ccc(COC(Cn2ccnc2)c2ccc(Cl)cc2Cl)c(Cl)c1 [Miconazole] | 0.0955 | -0.0711 | 0.0722 | 0.0658 | – | – | – | –
CN(C)[C@@H]1C(O)=C(C(N)=O)C(=O)[C@@]2(O)C(O)=C3C(=O)c4c(O)ccc(Cl)c4[C@@](C)(O)[C@H]3C[C@@H]12 [Clortetracycline] + CN1C2=CC=CC=C2N=C3C1=CC=CC3=O [Pyocyanin] | 0.0851 | -0.0238 | -0.0515 | 0.0397 | – | – | – | –
CC(=O)Oc1ccccc1C(=O)O [Acetylsalicylicacid] + COc1c(N2C[C@@H]3CCCN[C@@H]3C2)c(F)cc2c(=O)c(C(=O)O)cn(C3CC3)c12 [Moxifloxacin] | -0.0213 | 0.0628 | 0.114 | 0.114 | – | – | – | –
CO/N=C(\C(=O)N[C@@H]1C(=O)N2C(C(=O)O)=C(COC(N)=O)CS[C@H]12)c1ccco1 [Cefuroxime] + O=C(N[C@H](CO)[C@H](O)c1ccc([N+](=O)[O-])cc1)C(Cl)Cl [Chloramphenicol] | 0.162 | -0.0245 | -0.0407 | -0.341 | – | – | – | –
CN(C)[C@@H]1C(O)=C(C(N)=O)C(=O)[C@@]2(O)C(O)=C3C(=O)c4c(O)ccc(Cl)c4[C@@](C)(O)[C@H]3C[C@@H]12 [Clortetracycline] + CC1(C)S[C@@H]2[C@H](NC(=O)Cc3ccccc3)C(=O)N2[C@H]1C(=O)O [PenicillinG] | 0.123 | -0.0336 | -0.0614 | 0.0499 | – | – | – | –
CC(=O)Oc1ccccc1C(=O)O [Acetylsalicylicacid] + O=C(O)[C@H]1/C(=C/CO)O[C@@H]2CC(=O)N21 [Clavulanic] | 0.0831 | 0.0345 | 0.0986 | -0.553 | – | – | – | –
N#CC(C#N)=NNc1cccc(Cl)c1 [CCCP] + C[n+]1ccc(-c2cc[n+](C)cc2)cc1 [Paraquat] | 0.0508 | 0.0866 | -0.0253 | -0.0508 | – | – | – | –
N#CC(C#N)=NNc1cccc(Cl)c1 [CCCP] + CO[C@@]12[C@H](COC(N)=O)C3=C(C(=O)C(C)=C(N)C3=O)N1C[C@@H]1N[C@@H]12 [MitomycinC] | -0.051 | -0.0605 | -0.0345 | -0.0844 | – | – | – | –
N#CC(C#N)=NNc1cccc(Cl)c1 [CCCP] + O=C1CN(/N=C/c2ccc([N+](=O)[O-])o2)C(=O)N1 [Nitrofurantoin] | -0.0566 | -0.109 | -0.0479 | -0.0278 | – | – | – | –
Cc1ncc([N+](=O)[O-])n1CCO [Metronidazole] + CC[C@H]1OC(=O)[C@H](C)C(=O)[C@H](C)[C@@H](O[C@@H]2O[C@H](C)C[C@H](N(C)C)[C@H]2O)[C@](C)(OC)C[C@@H](C)C(=O)[C@H](C)[C@H]2N(CCCCn3cnc(-c4cccnc4)c3)C(=O)O[C@]12C [Telithromycin] | 0.0709 | 0.157 | 0.0357 | 0.0599 | – | – | – | –
